Reference: ChEMBL document CHEMBL1152605, “Novel 7H-pyrrolo[2,3-d]pyrimidine derivatives as potent and orally active STAT6 inhibitors” (Bioorg Med Chem, 2009)

Experiments:
[1] = biological target: T1, Signal transducer and activator of transcription 6 (Homo sapiens, UniProt P42226); assay: Inhibition of STAT6 in IL4-stimulated human FW4 reporter cells by luciferase assay
T1 sequence (P42226 whole entry): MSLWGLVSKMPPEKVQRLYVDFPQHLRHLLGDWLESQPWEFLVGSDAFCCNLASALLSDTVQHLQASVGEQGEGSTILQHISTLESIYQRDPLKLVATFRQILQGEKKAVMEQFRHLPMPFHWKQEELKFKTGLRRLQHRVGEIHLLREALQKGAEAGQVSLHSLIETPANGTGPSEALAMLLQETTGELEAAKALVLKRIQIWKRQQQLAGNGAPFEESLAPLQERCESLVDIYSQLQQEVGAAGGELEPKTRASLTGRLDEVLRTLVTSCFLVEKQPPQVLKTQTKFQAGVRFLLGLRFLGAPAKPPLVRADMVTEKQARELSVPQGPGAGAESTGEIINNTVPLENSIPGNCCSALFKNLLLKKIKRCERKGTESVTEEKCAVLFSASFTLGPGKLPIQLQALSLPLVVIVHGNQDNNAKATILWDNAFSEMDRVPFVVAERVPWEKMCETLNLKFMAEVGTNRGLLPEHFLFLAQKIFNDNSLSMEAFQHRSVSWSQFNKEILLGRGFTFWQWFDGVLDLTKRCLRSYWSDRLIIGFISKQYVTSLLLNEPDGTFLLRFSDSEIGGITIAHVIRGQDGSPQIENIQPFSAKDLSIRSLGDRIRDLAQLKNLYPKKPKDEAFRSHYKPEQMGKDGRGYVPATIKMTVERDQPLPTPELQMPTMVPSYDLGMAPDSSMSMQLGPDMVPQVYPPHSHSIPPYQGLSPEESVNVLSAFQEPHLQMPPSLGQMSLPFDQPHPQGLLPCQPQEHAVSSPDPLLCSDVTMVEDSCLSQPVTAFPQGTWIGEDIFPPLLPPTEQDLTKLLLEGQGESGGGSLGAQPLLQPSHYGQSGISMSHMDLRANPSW

CYP3A4 [2] = biological target: T2, CYP3A4 (Homo sapiens, UniProt P08684); assay: Inhibition of CYP3A4 in human liver microsomes assessed as residual activity at 5 uM; format: ADME, Microsome; conditions: read-out: Activity
CYP3A4 [3] = biological target: T2, CYP3A4; assay: Inhibition of CYP3A4 in human liver microsomes assessed as residual activity at 5 uM after 30 mins; format: ADME, Microsome; conditions: read-out: Activity
T-cell = assay: Inhibition of IL4 production in C57BL/6 mouse T cell after 16 hrs by T cell differentiation assay; format: functional, cell-based; conditions: C57BL/6, T-cell
Mus musculus = species: Mus musculus; assay: Antiasthmatic activity in OVA-induced pulmonary eosinophila BALB/c mouse model assessed as suppression of eosinophil infiltration in lung treated 30 mins before and 24, 48 hrs after OVA challenge; format: functional, organism-based

T2 sequence (P08684 whole entry): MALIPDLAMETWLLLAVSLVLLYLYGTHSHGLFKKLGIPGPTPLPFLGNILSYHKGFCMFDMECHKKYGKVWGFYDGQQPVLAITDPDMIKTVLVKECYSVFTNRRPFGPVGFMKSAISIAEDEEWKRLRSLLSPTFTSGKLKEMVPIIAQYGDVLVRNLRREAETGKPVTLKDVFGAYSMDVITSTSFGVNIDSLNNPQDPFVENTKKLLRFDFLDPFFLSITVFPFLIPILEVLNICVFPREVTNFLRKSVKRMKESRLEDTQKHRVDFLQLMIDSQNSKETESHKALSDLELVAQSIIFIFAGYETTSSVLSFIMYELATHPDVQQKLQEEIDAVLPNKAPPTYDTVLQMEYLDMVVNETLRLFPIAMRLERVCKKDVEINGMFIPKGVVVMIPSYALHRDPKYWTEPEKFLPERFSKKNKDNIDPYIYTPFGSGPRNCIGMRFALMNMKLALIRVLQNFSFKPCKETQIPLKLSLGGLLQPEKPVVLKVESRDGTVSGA

SMILES | IC50 [1] | activity at 5 µM (CYP3A4 [2]) | activity at 0.5 h, 5 µM (CYP3A4 [3]) | IC50 (T-cell) | Activity (Mus musculus)
NC(=O)c1cnc(Nc2ccc(N3CCOCC3)cc2)nc1NCc1c(F)ccc(F)c1F | 0.0007 µM | 100% | 31% | – | –
NC(=O)c1cnc(Nc2ccc(N3CCOCC3)cc2)nc1NCc1ccccc1 | 0.0065 µM | – | – | – | –
CNC(=O)CN1CCN(c2ccc(Nc3ncc4ccn(Cc5cc(F)cc(F)c5)c4n3)cc2)CC1 | 0.0047 µM | 85% | 77% | – | –
O=C(O)CN1CCN(c2ccc(Nc3ncc4ccn(Cc5cc(F)cc(F)c5)c4n3)cc2)CC1 | 0.026 µM | 100% | 98% | – | –
Fc1cc(F)cc(Cn2ccc3cnc(Nc4ccc(N5CCNCC5)cc4)nc32)c1 | 0.012 µM | 74% | 95% | – | –
NC(=O)CN1CCN(c2ccc(Nc3ncc4ccn(Cc5cc(F)cc(F)c5)c4n3)cc2)CC1 | 0.0019 µM | 104% | 85% | 0.0024 µM | Dose-dependent effect
OCCN1CCN(c2ccc(Nc3ncc4ccn(Cc5cc(F)cc(F)c5)c4n3)cc2)CC1 | 0.0056 µM | 86% | 86% | – | –
CN1CCN(c2ccc(Nc3ncc4ccn(Cc5cc(F)cc(F)c5)c4n3)cc2)CC1 | 0.0032 µM | 90% | 88% | – | –
NCCN1CCN(c2ccc(Nc3ncc4ccn(Cc5cc(F)cc(F)c5)c4n3)cc2)CC1 | 0.034 µM | 65% | 105% | – | –

The next lines start with results.

IC50 [1] | activity at 5 µM (CYP3A4 [2]) | activity at 0.5 h, 5 µM (CYP3A4 [3]) | IC50 (T-cell) | SMILES | Activity (Mus musculus)
0.12 µM | 80% | 37% | – | Fc1cc(F)cc(Cn2ccc3cnc(Nc4ccc(N5CCOCC5)cc4)nc32)c1 | –
0.037 µM | 97% | 56% | – | Fc1cccc(Cn2ccc3cnc(Nc4ccc(N5CCOCC5)cc4)nc32)c1 | –
0.4 µM | 88% | 34% | – | c1ccc(Cn2ccc3cnc(Nc4ccc(N5CCOCC5)cc4)nc32)cc1 | –
0.22 µM | 78% | 32% | – | Fc1ccccc1Cn1ccc2cnc(Nc3ccc(N4CCOCC4)cc3)nc21 | –
8.3 µM | – | – | – | c1ccc(CN2CCc3cnc(Nc4ccc(N5CCOCC5)cc4)nc32)cc1 | –
4.1 µM | 82% | 43% | – | Fc1ccc(Cn2ccc3cnc(Nc4ccc(N5CCOCC5)cc4)nc32)cc1 | –
